Test results taken from patent publication US11365181B2, “P-phenylenediamine derivative as potassium channel regulator and preparation method and medical application thereof” (Shanghai Zhimeng Biopharma, Inc., priority 2018, dated 2022).

Key:
[1] = Cerebral blood ratio of compound A in previous studies; format: in vivo; settings: brain/blood
Description: It can be seen from the results in Table 4 that after oral administration of compounds 03043 and 03044 to male SD rats, they have a good cerebral blood ratio (1.0-2.4) at each time point.

[2] = target: KCNQ2 potassium channel (CHO-KCNQ2 cells) (Homo sapiens (Human), UniProt O43526); experiment: Activity test of potassium ion channel opener (FDSS/μCELL detection, FluxOR potassium ion channel assay); format: cell-based; settings: CHO-KCNQ2 cells, FluxOR fluorescence, FDSS/μCELL
Experimental: Activity Test of Potassium Ion Channel Opener (FDSS/ρCELL Detection)
Cell preparation: CHO-KCNQ2 cells were cultured in a 175 cm^2 culture flask, and when the cells was grown to a density of 60-80%, the culture medium was removed, washed with 7 mL PBS (Phosphate Buffered Saline) once, then 3 mL 0.25% Trypsin was added to digest. After the digestion was completed, 7 mL culture medium (90% DMEM/F12+10% FBS+500 μg/mL G418) was added to neutralize, centrifugated for 3 minutes at 800 rpm. The supernatant was aspirated, then 5 mL culture medium was added to resuspend, and then the cells were counted.
Cell plating: The density to 3×10^4/well was adjusted according to the results of cell counting. After standing at room temperature for 30 minutes, the cells were placed in a 37° C. CO2 incubator and incubated overnight for 16-18 hours. The cell density reached about 80%.
Fluorescent dye incubation: The cell culture medium was discarded, 80 μL/well loading buffer was added, and the cells were incubated in dark at room temperature for 60 minutes.
Compound incubation: the loading buffer was discarded, 80 μL/well prepared compound solution was added, incubated at room temperature and in dark for 20 minutes.
Fluorescence data collection: FDSS/μCELL instrument for real-time fluorescence is used for signal recording, wherein excitation wavelength was 480 nm, emission wavelength was 540 nm, and signals were recorded 1 times per second, after baseline was recorded for 10 seconds, the addition of 20 μL/well stimulation buffer was started, and then the signal was continuously record until the end of 180 seconds.
loading buffer: 10 mL/plate, the preparation method was as follows:
Test buffer sample: 100 mL/plate, the preparation method was as follows:
Stimulation buffer: 5 mL/plate, the preparation method was as follows:
The above buffer was from a commercially available kit, the kit name was FluxOR potassium ion channel assay, the manufacturer's brand was Invitrogen, the article number was F10017, the lot number was 913728.
20 mM DMSO compound mother liquor was prepared, 10 μL of 20 mM compound mother liquor was took and added into 20 μL DMSO solution, serially diluted 3 times to 8 intermediate concentrations; then the middle concentration of the compound was took to the test buffer, 200 times dilution to get the final concentration to be tested, 80 μL was took and added to the test plate.
The highest test concentration was 100 μM, followed by […], 33.33, 11.11, 3.70, 1.23, 0.41, 0.137, 0.045 μM, total 8 concentrations. Each concentration 3 replicate holes.
This concentration of DMSO had no effect on the KCNQ2 potassium channel.
Experimental data was analyzed by Excel 2007 and GraphPad Prism 5.0 software, and the ratio of 180 seconds was calculated to calculate the excitement effect. The excitement effect of the compound is calculated by the following formula: […]
Environment: Temperature about 25° C.
Reagent: FluxOR™ Detection Kit (Invitrogen, Cat #[…])
The experimental data in the report might meet the following criteria: Z′ Factor>0.5
2. Determination Results: See Table 1 for Details, where the Smaller EC50 was, the Higher the Activity of the Corresponding Compound was.
References for the above test methods:
(2) Jinfeng Yue et al. Acta Pharmacologica Sinica, 2016, 37:105-110.

KCNQ2 potassium channel (CHO-KCNQ2 cells), sequence (O43526 whole entry): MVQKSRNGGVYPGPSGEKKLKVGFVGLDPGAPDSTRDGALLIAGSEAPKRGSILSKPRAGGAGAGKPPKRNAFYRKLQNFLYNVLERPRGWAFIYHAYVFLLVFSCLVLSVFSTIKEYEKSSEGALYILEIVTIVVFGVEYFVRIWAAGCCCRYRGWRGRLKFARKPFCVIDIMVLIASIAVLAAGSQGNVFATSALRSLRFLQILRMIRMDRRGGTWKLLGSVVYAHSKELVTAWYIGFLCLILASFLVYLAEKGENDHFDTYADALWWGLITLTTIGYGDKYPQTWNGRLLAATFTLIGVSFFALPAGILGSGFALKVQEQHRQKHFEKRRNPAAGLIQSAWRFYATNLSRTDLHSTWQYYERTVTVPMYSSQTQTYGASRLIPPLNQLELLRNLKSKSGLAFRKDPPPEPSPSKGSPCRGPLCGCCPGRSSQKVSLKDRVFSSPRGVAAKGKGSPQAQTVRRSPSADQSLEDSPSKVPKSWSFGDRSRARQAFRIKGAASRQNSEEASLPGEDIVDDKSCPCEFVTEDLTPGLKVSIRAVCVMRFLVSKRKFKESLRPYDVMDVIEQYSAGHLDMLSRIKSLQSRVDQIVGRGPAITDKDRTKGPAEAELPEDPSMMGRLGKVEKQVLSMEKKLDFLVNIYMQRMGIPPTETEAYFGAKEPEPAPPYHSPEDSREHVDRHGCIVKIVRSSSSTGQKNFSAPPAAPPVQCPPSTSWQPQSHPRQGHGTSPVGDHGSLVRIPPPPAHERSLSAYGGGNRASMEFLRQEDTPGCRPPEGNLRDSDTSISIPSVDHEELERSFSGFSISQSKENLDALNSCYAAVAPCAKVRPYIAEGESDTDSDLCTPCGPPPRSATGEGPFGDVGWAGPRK

Kp at 2 h ([1]; at 2 h): 0.56
Kp at 4 h ([1]; at 4 h): 0.46
Kp ([1]; overall): ~0.5
EC50 [2]: 65 nM
SMILES: Cc1cc(N2CCc3sc(Cl)cc3C2)cc(C)c1NC(=O)CC(C)(C)C [Compound A]
